For data set [1], the species on record is Homo sapiens. Put plainly: Liver toxicity in human assessed as induction of drug-induced liver injury by measuring severity class index.
The species entered for data set [2] is Homo sapiens. Put plainly: Liver toxicity in human assessed as induction of drug-induced liver injury by measuring verified drug-induced liver injury concern status.

Positions of bridges follow the written chain, without caps; N, C: chain ends. Non-standard residues stand in square brackets, D forms with d. Residues, ends and D or L forms follow the SMILES beside them. *: point of attachment. Ileψ(thiazoline)Cys = CC[C@H](C)[C@H](N)C1=N[C@H](C(=O)*)CS1; dOrn = NCCC[C@@H](N)C(=O)O
Throughout, for DILI severity class: key of the grades not given here.

For `CC(C)NCC(O)COc1ccc(CC(N)=O)cc1` (configuration not stated) [ATENOLOL], the DILI_severity_class in the data set listed under Homo sapiens [1] is listed as 4. The DILI_Concern entry in the data set listed under Homo sapiens [2] is “Less-Dili-Concern”.
For `CNCC[C@@H](Oc1ccccc1C)c1ccccc1` [ATOMOXETINE], the DILI_severity_class in the data set listed under Homo sapiens [1] stood at 8. For the same molecule, the DILI_Concern entry in the data set filed under Homo sapiens [2] was “Most-Dili-Concern”.
For the molecule `CC(C)c1c(C(=O)Nc2ccccc2)c(-c2ccccc2)c(-c2ccc(F)cc2)n1CC[C@@H](O)C[C@@H](O)CC(=O)O` [ATORVASTATIN], in the data set listed under Homo sapiens [1], the DILI_severity_class turned out to be 5. Further, the DILI_Concern result in the data set listed under Homo sapiens [2] is reported as “Most-Dili-Concern”.
As for `O=C1C(O)=C([C@H]2CC[C@H](c3ccc(Cl)cc3)CC2)C(=O)c2ccccc21` [ATOVAQUONE], the DILI_severity_class in the data set listed under Homo sapiens [1] came to 8. Further, in the data set filed under Homo sapiens [2], the DILI_Concern result is reported as “Ambiguous-Dili-Concern”.
For `CN1[C@@H]2CC[C@H]1C[C@@H](OC(=O)C(CO)c1ccccc1)C2` (some centres not stated) [ATROPINE] the same measures were 0 and “No-Dili-Concern”.
The matching figures for `Nc1ncn([C@@H]2O[C@H](CO)[C@@H](O)[C@H]2O)c(=O)n1` [AZACITIDINE]: 8 and “Ambiguous-Dili-Concern”.
The matching figures for `Cn1cnc([N+](=O)[O-])c1Sc1ncnc2nc[nH]c12` [AZATHIOPRINE]: 5 and “Most-Dili-Concern”.
Regarding `CC[C@H]1OC(=O)[C@H](C)[C@@H](O[C@H]2C[C@@](C)(OC)[C@@H](O)[C@H](C)O2)[C@H](C)[C@@H](O[C@@H]2O[C@H](C)C[C@H](N(C)C)[C@H]2O)[C@](C)(O)C[C@@H](C)CN(C)[C@H](C)[C@@H](O)[C@]1(C)O` [AZITHROMYCIN], in the data set filed under Homo sapiens [1], the DILI_severity_class was found to be 7. Besides, in the data set listed under Homo sapiens [2], the DILI_Concern result was “Less-Dili-Concern”.
For the molecule `C[C@H]1[C@H](NC(=O)/C(=N\OC(C)(C)C(=O)O)c2csc(N)n2)C(=O)N1S(=O)(=O)O` [AZTREONAM], the DILI_severity_class in the data set listed under Homo sapiens [1] is on record as 5. In addition, the DILI_Concern entry in the data set filed under Homo sapiens [2] was “Ambiguous-Dili-Concern”.
Take `CC[C@H](C)[C@H](N)C1=N[C@H](C(=O)N[C@@H](CC(C)C)C(=O)N[C@H](CCC(=O)O)C(=O)N[C@H](C(=O)N[C@H]2CCCCNC(=O)[C@H](CC(N)=O)NC(=O)[C@@H](CC(=O)O)NC(=O)[C@H](Cc3cnc[nH]3)NC(=O)[C@@H](Cc3ccccc3)NC(=O)[C@H]([C@@H](C)CC)NC(=O)[C@@H](CCCN)NC2=O)[C@@H](C)CC)CS1` [BACITRACIN] ({Ileψ(thiazoline)Cys}-L[dE]IK[dOrn]I[dF]H[dD]N; lactam 4-C): the DILI_severity_class in the data set listed under Homo sapiens [1] worked out at 0. In addition, in the data set listed under Homo sapiens [2], the DILI_Concern entry is on record as “No-Dili-Concern”.
For `NCC(CC(=O)O)c1ccc(Cl)cc1` (configuration not stated) [BACLOFEN] the same measures were 3 and “Less-Dili-Concern”.
The matching figures for `O=C(O)CCNC(=O)c1ccc(/N=N/c2ccc(O)c(C(=O)O)c2)cc1` [BALSALAZIDE]: 8 and “Ambiguous-Dili-Concern”.
As to `CCOC(=O)[C@H](CCc1ccccc1)N[C@H]1CCc2ccccc2N(CC(=O)O)C1=O` [BENAZEPRIL], the DILI_severity_class in the data set filed under Homo sapiens [1] is on record as 4. Further, the DILI_Concern entry in the data set filed under Homo sapiens [2] is listed as “Less-Dili-Concern”.
For the molecule `Cn1c(CCCC(=O)O)nc2cc(N(CCCl)CCCl)ccc21` [BENDAMUSTINE], the DILI_severity_class in the data set listed under Homo sapiens [1] is 0. The DILI_Concern result in the data set listed under Homo sapiens [2] is “No-Dili-Concern”.
In the case of `O=C(O)COc1nn(Cc2ccccc2)c2ccccc12` [BENDAZAC], the DILI_severity_class in the data set listed under Homo sapiens [1] is 8. Further, in the data set listed under Homo sapiens [2], the DILI_Concern result is recorded as “Most-Dili-Concern”.
For `NS(=O)(=O)c1cc2c(cc1C(F)(F)F)NC(Cc1ccccc1)NS2(=O)=O` (configuration not stated) [BENDROFLUMETHIAZIDE], in the data set listed under Homo sapiens [1], the DILI_severity_class was 5. In addition, the DILI_Concern entry in the data set filed under Homo sapiens [2] is recorded as “Less-Dili-Concern”.
The matching figures for `CC(C(=O)O)c1ccc2oc(-c3ccc(Cl)cc3)nc2c1` (configuration not stated) [BENOXAPROFEN]: 8 and “Most-Dili-Concern”.
For the molecule `CCc1oc2ccccc2c1C(=O)c1ccc(O)cc1` [BENZARONE], the DILI_severity_class in the data set filed under Homo sapiens [1] was determined as 8. Besides, in the data set listed under Homo sapiens [2], the DILI_Concern entry is “Most-Dili-Concern”.
In the case of `CCc1oc2ccccc2c1C(=O)c1cc(Br)c(O)c(Br)c1` [BENZBROMARONE], in the data set listed under Homo sapiens [1], the DILI_severity_class is 8. The DILI_Concern result in the data set listed under Homo sapiens [2] is listed as “Most-Dili-Concern”.
On to `CCc1oc2ccccc2c1C(=O)c1cc(I)c(O)c(I)c1` [BENZIODARONE], for which, in the data set filed under Homo sapiens [1], the DILI_severity_class was determined as 8. The DILI_Concern result in the data set listed under Homo sapiens [2] is on record as “Most-Dili-Concern”.
On to `CCCCNc1ccc(C(=O)OCCOCCOCCOCCOCCOCCOCCOCCOCCOC)cc1` [BENZONATATE], for which the DILI_severity_class in the data set filed under Homo sapiens [1] is recorded as 0. In addition, the DILI_Concern entry in the data set filed under Homo sapiens [2] is recorded as “Less-Dili-Concern”.
On to `C[C@@H](Cc1ccccc1)N(C)Cc1ccccc1` [BENZPHETAMINE], for which the DILI_severity_class in the data set listed under Homo sapiens [1] was found to be 0. The DILI_Concern entry in the data set filed under Homo sapiens [2] was “No-Dili-Concern”.
The matching figures for `CN1[C@@H]2CC[C@H]1C[C@@H](OC(c1ccccc1)c1ccccc1)C2` [BENZTROPINE]: 0 and “No-Dili-Concern”.
As to `C[N+](C)(C)CC(=O)O` [BETAINE], in the data set listed under Homo sapiens [1], the DILI_severity_class is given as 0. The DILI_Concern entry in the data set listed under Homo sapiens [2] was “No-Dili-Concern”.
Turning to `CC(C)NCC(O)COc1ccc(CCOCC2CC2)cc1` (configuration not stated) [BETAXOLOL], in the data set listed under Homo sapiens [1], the DILI_severity_class is recorded as 3. Further, the DILI_Concern entry in the data set listed under Homo sapiens [2] is listed as “Ambiguous-Dili-Concern”.
For `CC(C[N+](C)(C)C)OC(N)=O` (configuration not stated) [BETHANECHOL] the same measures were 0 and “No-Dili-Concern”.
The matching figures for `C=C(c1ccc(C(=O)O)cc1)c1cc2c(cc1C)C(C)(C)CCC2(C)C` [BEXAROTENE]: 8 and “Most-Dili-Concern”.
In the case of `CC(O)(CS(=O)(=O)c1ccc(F)cc1)C(=O)Nc1ccc(C#N)c(C(F)(F)F)c1` (configuration not stated) [BICALUTAMIDE], the DILI_severity_class in the data set filed under Homo sapiens [1] came to 8. The DILI_Concern result in the data set filed under Homo sapiens [2] was “Most-Dili-Concern”.
Turning to `OC(CCN1CCCCC1)(c1ccccc1)C1CC2C=CC1C2` (configuration not stated) [BIPERIDEN], the DILI_severity_class in the data set filed under Homo sapiens [1] was found to be 0. Also, in the data set listed under Homo sapiens [2], the DILI_Concern result is “No-Dili-Concern”.
`CC(=O)Oc1ccc(C(c2ccc(OC(C)=O)cc2)c2ccccn2)cc1` [BISACODYL]: the DILI_severity_class in the data set listed under Homo sapiens [1] is recorded as 0. Also, the DILI_Concern result in the data set listed under Homo sapiens [2] is recorded as “No-Dili-Concern”.
For `CC(C)NCC(O)COc1ccc(COCCOC(C)C)cc1` (configuration not stated) [BISOPROLOL] the same measures were 3 and “Ambiguous-Dili-Concern”.
For `CC(C)C[C@H](NC(=O)[C@H](Cc1ccccc1)NC(=O)c1cnccn1)B(O)O` [BORTEZOMIB] the same measures were 7 and “Most-Dili-Concern”.
The matching figures for `COc1ccccc1Oc1c(NS(=O)(=O)c2ccc(C(C)(C)C)cc2)nc(-c2ncccn2)nc1OCCO` [BOSENTAN]: 7 and “Most-Dili-Concern”.
`Nc1c(CC(=O)O)cccc1C(=O)c1ccc(Br)cc1` [BROMFENAC]: the DILI_severity_class in the data set filed under Homo sapiens [1] worked out at 8. For the same molecule, in the data set filed under Homo sapiens [2], the DILI_Concern entry is listed as “Most-Dili-Concern”.
The matching figures for `CC(C)C[C@H]1C(=O)N2CCC[C@H]2[C@]2(O)O[C@](NC(=O)[C@@H]3C=C4c5cccc6[nH]c(Br)c(c56)C[C@H]4N(C)C3)(C(C)C)C(=O)N12` [BROMOCRIPTINE]: 3 and “Less-Dili-Concern”.
For `CN(C)CCC(c1ccc(Br)cc1)c1ccccn1` (configuration not stated) [BROMPHENIRAMINE] the same measures were 0 and “No-Dili-Concern”.

Values taken from ChEMBL document CHEMBL4028802, “DILIrank: the largest reference drug list ranked by the risk for developing drug-induced liver injury in humans” (Drug Discov Today, 2016).
